Test results from patent US7655429B2, “Immunoassays for topiramate” (Seradyn, Inc., priority 2004, dated 2010).

Legend:
[1] = test system: anti-topiramate antibodies prepared with immunogen (17); assay: ELISA binding inhibition study (avidity), free topiramate versus coated antigen; parameters: species or system Rabbit
Protocol: ELISA plates for use in an ELISA assay are prepared in order to study the polyclonal antibody prepared as described in Example 21. As such, various topiramate antigens (16), (19), and (20) are coated on different ELISA plates before being subjected to the anti-topiramate antibody and competing free topiramate. More particularly, the topiramate antigens are diluted in coating buffer, and then added to the wells of ELISA plate. After the ELISA plate is incubated for 60 min at 37° C., the solvent in the coating buffer is decanted and a blocking buffer is added to the plate. The plate is incubated again for 60 min at 37° C., and the solvent in the blocking buffer is decanted from the plate. The ELISA plate is then stored with the blocking agent in the wells at 2-8° C. for up to 1 week. The avidity of the anti-topiramate antibodies prepared with immunogen (17) for topiramate analogs are determined by a binding inhibition study. As such, samples are prepared in 1 mL of PBS at pH 7.4 with 0.1% BSA. A composition having 30% Bmax titer or 50% Bmax titer is used to divide the obtained titer value into approximately half the titer value. Using 30% Bmax, an antibody titer of 1:10,000 is diluted to 1:5,000 during the sample preparation stage. About 50 μL of topiramate at different concentrations or calibrator values, (0, 2, 4, 8, 16, 32 μg/ml) are then applied to a plate as prepared in accordance with Example 22. About 50 μL of the diluted antibody is dispensed into the plate, and the compositions in the plate are mixed for 1 min on a horizontal plate shaker. The plate is characterized by a first row not containing topiramate or anti-topiramate antibody, wherein the first row is used as a negative control. A second row not containing topiramate is used as the positive control. The plate is incubated for 60 min, and washed three times with 250 μL of PBS at pH 7.4 with 0.05% tween. About 125 μL of a diluted second antibody conjugate such as antigens (16), (19), or (20), in PBS at pH 7.4 is added to each well of the plate. Titer is determined experimentally by the plate being incubated for 60 min at 37° C. and washed 3 times with 250 μL PBS, pH 7.4 with 0.05% tween. Subsequently, about 125 μL of ABTS substrate is added to each well of the plate and incubated for 20 min.

[2] = test system: sheep polyclonal antibodies that bind with topiramate prepared from immunogen (18); assay: QMS homogeneous particle-enhanced immunoturbidimetric assay; assay type: binding; conditions: Topiramate antigen (19) coated Latex, Polyclonal antibody R1
Protocol: An immunoturbidimetric or QMS® assay, which is a homogeneous particle-enhanced immunoturbidimetric experiment, is performed to test the polyclonal antibodies prepared as in Example 21. […] The assay procedure is initiated by diluting the specimen because the specimens with topiramate can be used to generate results that exceed the highest calibrator value. As such, the specimens may be diluted manually or by using an automated onboard dilution protocol. The assay is based on competition for topiramate-specific antibody binding sites between drug in the sample and drug coated onto a microparticle of topiramate-coated microparticle reagent is rapidly agglutinated in the presence of the anti-topiramate antibody reagent and in the absence of any competing drug of the sample. The rate of absorbance change is measured photometrically, and is directly proportional to the rate of agglutination of the particles. […] A concentration-dependent classic agglutination inhibition curve can be obtained, with maximum rate of agglutination at the lowest topiramate concentration (at zero μg/ml) and the lowest agglutination rate at the highest topiramate concentration (32 μg/ml). The QMS® topiramate assay is initiated after the being calibrated using a full calibration (6-point) procedure. The QMS® is performed as directed in operation manuals in accordance with the average skill of one in the art.

[3] = Antigen 16, Topiramate 2 μg/ml, Rabbit No. 5481
[4] = Antigen 16, Topiramate 2 μg/ml, Rabbit No. 5492
[5] = Antigen 16, Topiramate 4 μg/ml, Rabbit No. 5481
[6] = Antigen 16, Topiramate 4 μg/ml, Rabbit No. 5492
[7] = Antigen 16, Topiramate 8 μg/ml, Rabbit No. 5481
[8] = Antigen 16, Topiramate 8 μg/ml, Rabbit No. 5492
[9] = Antigen 16, Topiramate 16 μg/ml, Rabbit No. 5481
[10] = Antigen 16, Topiramate 16 μg/ml, Rabbit No. 5492
[11] = Antigen 16, Topiramate 32 μg/ml, Rabbit No. 5481
[12] = Antigen 16, Topiramate 32 μg/ml, Rabbit No. 5492
[13] = Antigen 19, Topiramate 2 μg/ml, Rabbit No. 5481
[14] = Antigen 19, Topiramate 2 μg/ml, Rabbit No. 5492
[15] = Antigen 19, Topiramate 4 μg/ml, Rabbit No. 5481
[16] = Antigen 19, Topiramate 4 μg/ml, Rabbit No. 5492
[17] = Antigen 19, Topiramate 8 μg/ml, Rabbit No. 5481
[18] = Antigen 19, Topiramate 8 μg/ml, Rabbit No. 5492
[19] = Antigen 19, Topiramate 16 μg/ml, Rabbit No. 5481
[20] = Antigen 19, Topiramate 16 μg/ml, Rabbit No. 5492
[21] = Antigen 19, Topiramate 32 μg/ml, Rabbit No. 5481
[22] = Antigen 19, Topiramate 32 μg/ml, Rabbit No. 5492
[23] = Antigen 20, Topiramate 2 μg/ml, Rabbit No. 5481
[24] = Antigen 20, Topiramate 2 μg/ml, Rabbit No. 5492
[25] = Antigen 20, Topiramate 4 μg/ml, Rabbit No. 5481
[26] = Antigen 20, Topiramate 4 μg/ml, Rabbit No. 5492
[27] = Antigen 20, Topiramate 8 μg/ml, Rabbit No. 5481
[28] = Antigen 20, Topiramate 8 μg/ml, Rabbit No. 5492
[29] = Antigen 20, Topiramate 16 μg/ml, Rabbit No. 5481
[30] = Antigen 20, Topiramate 16 μg/ml, Rabbit No. 5492
[31] = Antigen 20, Topiramate 32 μg/ml, Rabbit No. 5481
[32] = Antigen 20, Topiramate 32 μg/ml, Rabbit No. 5492

`CC1(C)O[C@@H]2[C@@H](CO[C@@]3(COS(N)(=O)=O)OC(C)(C)O[C@@H]23)O1` [Topiramate, 2,3:4,5-di-O-isopropylidene-beta-D-fructopyranose sulfamate] showed an Abs [1, 3] of 0.29, a B/Bo [1, 3] of 0.38 and an Abs [1, 4] of 0.25. For the same compound, the B/Bo [1, 4] was 0.56, the Abs [1, 5] was 0.26 and the B/Bo [1, 5] was 0.34. It also gave an Abs [1, 6] of 0.20, a B/Bo [1, 6] of 0.44 and an Abs [1, 7] of 0.18. It also gave a B/Bo [1, 7] of 0.24, an Abs [1, 8] of 0.15 and a B/Bo [1, 8] of 0.33. For the same compound, the Abs [1, 9] was 0.15, the B/Bo [1, 9] was 0.20 and the Abs [1, 10] was 0.13. For the same compound, the B/Bo [1, 10] was 0.29, the Abs [1, 11] was 0.11 and the B/Bo [1, 11] was 0.14. The Abs [1, 12] was 0.01, the B/Bo [1, 12] was 0.02 and the Abs [1, 13] was 0.33. The B/Bo [1, 13] was 0.40, the Abs [1, 14] was 0.31 and the B/Bo [1, 14] was 0.38. For the same compound, the Abs [1, 15] was 0.25, the B/Bo [1, 15] was 0.30 and the Abs [1, 16] was 0.23. The B/Bo [1, 16] was 0.28, the Abs [1, 17] was 0.20 and the B/Bo [1, 17] was 0.24. For the same compound, the Abs [1, 18] was 0.19, the B/Bo [1, 18] was 0.23 and the Abs [1, 19] was 0.18. For the same compound, the B/Bo [1, 19] was 0.22, the Abs [1, 20] was 0.17 and the B/Bo [1, 20] was 0.20. For the same compound, the Abs [1, 21] was 0.15, the B/Bo [1, 21] was 0.18 and the Abs [1, 22] was 0.15. For the same compound, the B/Bo [1, 22] was 0.18, the Abs [1, 23] was 0.32 and the B/Bo [1, 23] was 0.53. The Abs [1, 24] was 0.45, the B/Bo [1, 24] was 0.64 and the Abs [1, 25] was 0.30. It also gave a B/Bo [1, 25] of 0.50, an Abs [1, 26] of 0.41 and a B/Bo [1, 26] of 0.59. It also gave an Abs [1, 27] of 0.25, a B/Bo [1, 27] of 0.42 and an Abs [1, 28] of 0.38. For the same compound, the B/Bo [1, 28] was 0.54, the Abs [1, 29] was 0.22 and the B/Bo [1, 29] was 0.37. The Abs [1, 30] was 0.38, the B/Bo [1, 30] was 0.54 and the Abs [1, 31] was 0.18. It also gave a B/Bo [1, 31] of 0.30, an Abs [1, 32] of 0.28 and a B/Bo [1, 32] of 0.40. The “Rate (Delta Absorbance)” value ([2]; Topiramate 8 μg/ml sample) was 60, the “Rate (Delta Absorbance)” value ([2]; Topiramate 16 μg/ml sample) was 16 and the “Rate (Delta Absorbance)” value ([2]; Topiramate 32 μg/ml sample) was 4.
